Assays:
[1] = test system: ovine uterine artery endothelial cells from pregnant sheep (P-UAEC); test: Fura-2 [Ca2+]i imaging: ATP stimulated Ca2+ burst number after VEGF pretreatment, with or without rescue agent; format: cell-based; conditions: for rescue from VEGF165 mediated inhibition of subsequent ATP stimulated Ca2+ bursts: rescue agent 10 uM added right before VEGF165 10 ng/ml, second ATP 100 uM response as % of first; for rescue from VEGF165 mediated inhibition of subsequent ATP stimulated Ca2+ bursts / CLA rescue of VEGF inhibitory effects on subsequent ATP burst number: 30 min; for CLA rescue of VEGF inhibitory effects on subsequent ATP burst number: t10:c12 CLA 50 uM added before VEGF165 10 ng/ml, compared with PP2 10 uM
Excerpt: Studies in ovine uterine artery endothelial cells from pregnant sheep (P-UAEC). P-UAEC are a well-established cell model of endothelial cells isolated from uterine arteries and maintained in culture to passage 3 before freezing for future use.
Isolation of UAECs: Uterine arteries were obtained from Polypay and mixed Western breed nonpregnant sheep (n=4) and pregnant ewes (n=6) at 120-130 days of gestation during nonsurvival surgery, as described in the art. Procedures for animal handling and protocols for experimental procedures were approved by the University of Wisconsin-Madison Research Animal Care Committees of both the School of Medicine and Public Health and the College of Agriculture and Life Sciences and follow the recommended American Veterinary Medicine Association guidelines for humane treatment and euthanasia of laboratory farm animals.
Fura-2 [Ca^2+]i Imaging Studies: Uterine artery endothelial cells plated to 35-mm dishes with glass coverslip windows (MatTek Corp.) were grown to the required density (20%-100%, as described) and then loaded with 5 μM Fura-2 AM in Krebs buffer (125 mM NaCl, 5 mM KCl, 1 mM MgSO4, 1 mM KH2PO4, 6 mM glucose, 2 mM CaCl2, and 25 mM HEPES, pH 7.4) for 45 min. After rinsing and incubating a further 30 min to complete ester hydrolysis, Fura-2 loading was verified by viewing at 380-nm ultraviolet excitation on a Nikon inverted microscope (TS100; Melville, N.Y.). About 60 cells were then preselected and video recordings commenced using alternate excitation at 340 and 380 nm at 1-sec intervals and measuring emitted light using a digital camera. From the ratio of emission at 510 nm detected at the two excitation wavelengths, and by comparison to a standard curve established for the same settings using buffers of known free Ca^2+ concentration, the [Ca^2+]i was then calculated for individual cells in real time using InCyt Im2 software (Intracellular Imaging Inc., Cincinnati, Ohio).
Data in graphs is calculated comparing the cells repeated burst patterns before and after repeat treatment. ATP 100 μM 30 min followed by ATP 100 uM 30 min gives a marginal decline in number of Ca^2+ bursts (as defined in the art). However other agents activating protein kinases such as ERK and Src cause closure of CX43 and so loss of associated bursts. Therefore to perform the analysis, ATP stimulation is performed once to establish an uninhibited response for each cell. Then the inhibitory treatment under study is given (VEGF, 10 ng/ml or equivalent). After 30 minutes the second ATP treatment begins and burst response is expressed as % of the first ATP response. To then further test the protective or rescue effect of kinase inhibitors we follow the same protocol but add the rescue agent right before the VEGF. U0126 is an MEK/ERK pathway blocked, PP2 is a Src pathway blocker, and CLA is the test compound.

[2] = test system: CX43; test: Phosphorylation of CX43 at specific inhibitory sites in VEGF-treated uterine artery endothelial cells; format: cell-based, sheep; conditions: cultured uterine artery endothelial cells from pregnant animals, VEGF inhibited, with rescue agent
[3] = test system: ERK and Src signaling; conditions: cancer cells; earlier finding; cited from earlier work

What does the source list for CC(C)(C)n1nc(-c2ccc(Cl)cc2)c2c(N)ncnc21 [PP2]?
rescue from VEGF165 mediated inhibition of subsequent ATP stimulated Ca2+ bursts ([1]; FIG. 3): can rescue the cells; phosphorylation of CX43 at specific inhibitory sites [2]: reversal of the phosphorylation of CX43

Which “rescue from VEGF165 mediated inhibition of subsequent ATP stimulated Ca2+ bursts” value ([1]; FIG. 3) does the source give for N#CC(=C(/N)Sc1ccccc1N)/C(C#N)=C(\N)Sc1ccccc1N [U0126] here?
The value was “can rescue the cells”.

What about the “phosphorylation of CX43 at specific inhibitory sites” value [2] of the same compound?
Its value is “reversal of the phosphorylation of CX43”.

With CCCCCC/C=C/C=C\CCCCCCCC(=O)O [c9:t11 CLA] as the compound, how does the “CLA rescue of VEGF inhibitory effects on subsequent ATP burst number” value (“CLA rescue of VEGF inhibitory effects” below) ([1]; FIG. 4) read?
Its value is “have not achieved rescue”.

Which “CLA rescue of VEGF inhibitory effects” value ([1]; FIG. 4) does the source give for CCCCC/C=C\C=C\CCCCCCCCC(=O)O [t10:c12 CLA, t10:c12 conjugated linoleic acid] here?
The value was “can achieve the same rescue effect as PP2”.

What about the “CLA rescue of VEGF inhibitory effects” value ([1]; FIG. 4, listed as CLA) of the same compound?
The value was “improvement of function beyond rescue”.

What about the “inhibition of ERK and Src kinase signaling pathways” value [3] of the same compound?
The value was “can inhibit these pathways”.

For VEGF, which “effect of factor pretreatment on subsequent ATP stimulated Ca2+ bursts” value ([1]; 30 min pretreatment, 10 ng/ml, FIG. 3) is on record?
Its value is “inhibitory effects”.
